Experimental data: patent publication US10828315B2 (Madrigal Pharmaceuticals, Inc., priority 2013, dated 2020)
pIC50: −log10 of the molar value. “And” between values parts separate entries of the source, which are not always exact repeats. Equal values may be shown once. Read-outs that look alike come from different tables or passages of the source.

Columns and labels:
[1] = mouse, plasma, 1 h, 10 µM
[2] = Mouse plasma stability protocol, up to 1 h (Examples 16-18)
HER2 = HER2 degradation assay with BT-474 cell line (Example 12, FACS); format: cell-based, human
[3] = Tissue Distribution Data for SDC-TRAP-0056
[4] = % Remaining of parent after 1 h incubation in mouse plasma at 37° C. (10 μM)

CCNC(=O)c1nnc(-c2cc(C(C)C)c(O)cc2O)n1-c1ccc(C(=O)N(C)CC(=O)Nc2cccc3c2CN(C2CCC(=O)NC2=O)C3=O)cc1 (centres unmarked) [SDC-TRAP-0147, 5-(2,4-dihydroxy-5-isopropylphenyl)-4-(4-((2-((2-(2,6-dioxopiperidin-3-yl)-1-oxoisoindolin-4-yl)amino)-2-oxoethyl)(methyl)carbamoyl)phenyl)-N-ethyl-4H-1,2,4-triazole-3-carboxamide]
% Remaining (1 h) [1]: 98.1%

CCNC(=O)c1nnc(-c2cc(C(C)C)c(O)cc2O)n1-c1ccc(Oc2ccc(C(=O)N[C@@H](CC(C)C)C(=O)Nc3cccc4c3CN(C3CCC(=O)NC3=O)C4=O)cc2)cc1 (stereo partly drawn) [SDC-TRAP-0191, 5-(2,4-dihydroxy-5-isopropylphenyl)-4-(4-(4-(((2S)-1-((2-(2,6-dioxopiperidin-3-yl)-1-oxoisoindolin-4-yl)amino)-4-methyl-1-oxopentan-2-yl)carbamoyl)phenoxy)phenyl)-N-ethyl-4H-1,2,4-triazole-3-carboxamide]
% Remaining (1 h) [1]: 77.4%

CCNC(=O)c1nnc(-c2cc(C(C)C)c(O)cc2O)n1-c1ccc(Oc2ccc(C(=O)N3CCC(N(C)C(=O)Oc4ccc5nc6c(c(CC)c5c4)Cn4c-6cc5c(c4=O)COC(=O)C5(O)CC)CC3)cc2)cc1 (centres unmarked) [SDC-TRAP-0180, 4,11-Diethyl-4-hydroxy-3,14-dioxo-3,4,12,14-tetrahydro-1H-pyrano[3′,4′:6,7]indolizino[1,2-b]quinolin-9-yl (1-(4-(4-(3-(2,4-dihydroxy-5-isopropylphenyl)-5-(ethylcarbamoyl)-4H-1,2,4-triazol-4-yl)phenoxy)benzoyl)piperidin-4-yl)(methyl)carbamate]
% Remaining (1 h) [2, 4]: 72.4% | % Remaining (1 h) ([2]; mouse plasma, 37° C., 10 μM): 72.4% | % Remaining (1 h, 37° C.) ([2]; mouse plasma, 37° C.): 72.4% | pIC50 (HER2): 6.49

CCc1c2c(nc3ccc(OC(=O)N(C)C4CCN(C(=O)CCn5ccc6cc(-n7c(O)nnc7-c7cc(C(C)C)c(O)cc7O)ccc65)CC4)cc13)-c1cc3c(c(=O)n1C2)COC(=O)C3(O)CC (centres unmarked) [SDC-TRAP-0184, 4,11-diethyl-4-hydroxy-3,14-dioxo-3,4,12,14-tetrahydro-1H-pyrano[3′,4′:6,7]indolizino[1,2-b]quinolin-9-yl (1-(3-(5-(3-(2,4-dihydroxy-5-isopropylphenyl)-5-hydroxy-4H-1,2,4-triazol-4-yl)-1H-indol-1-yl)propanoyl)piperidin-4-yl)(methyl)carbamate]
% Remaining (1 h) [2, 4]: 18.0% | % Remaining (1 h) ([2]; mouse plasma, 37° C., 10 μM): 18.0% | % Remaining (1 h, 37° C.) ([2]; mouse plasma, 37° C.): 18.0% | pIC50 (HER2): 5.40

CCc1c2c(nc3ccc(OC(=O)N4CCN(Cc5ccc(-n6c(O)nnc6-c6cc(C(C)C)c(O)cc6O)cc5)CC4C)cc13)-c1cc3c(c(=O)n1C2)COC(=O)C3(O)CC (centres unmarked) [SDC-TRAP-0220, 4,11-diethyl-4-hydroxy-3,14-dioxo-3,4,12,14-tetrahydro-1H-pyrano[3′,4′:6,7]indolizino[1,2-b]quinolin-9-yl 4-(4-(3-(2,4-dihydroxy-5-isopropylphenyl)-5-hydroxy-4H-1,2,4-triazol-4-yl)benzyl)-2-methylpiperazine-1-carboxylate]
% Remaining (1 h, 37° C.) ([2]; mouse plasma, 37° C.): 78.3% | pIC50 (HER2): 6.32 and 6.35

CCNC(=O)c1nnc(-c2cc(C(C)C)c(O)cc2O)n1-c1ccc(OC2CCN(C(=O)CN(C)C(=O)Oc3ccc4nc5c(c(CC)c4c3)Cn3c-5cc4c(c3=O)COC(=O)[C@]4(O)CC)CC2)cc1 [SDC-TRAP-0206, (S)-4,11-diethyl-4-hydroxy-3,14-dioxo-3,4,12,14-tetrahydro-1H-pyrano[3′,4′:6,7]indolizino[1,2-b]quinolin-9-yl (2-(4-(4-(3-(2,4-dihydroxy-5-isopropylphenyl)-5-(ethylcarbamoyl)-4H-1,2,4-triazol-4-yl)phenoxy)piperidin-1-yl)-2-oxoethyl)(methyl)carbamate]
% Remaining (1 h) [2, 4]: 68.6% | % Remaining (1 h, 37° C.) ([2]; mouse plasma, 37° C.): 68.6% | pIC50 (HER2): 6.49

CCc1c2c(nc3ccc(OC(=O)N4CCC(Cn5ccc6cc(-n7c(O)nnc7-c7cc(C(C)C)c(O)cc7O)ccc65)CC4)cc13)-c1cc3c(c(=O)n1C2)COC(=O)C3(O)CC (centres unmarked) [SDC-TRAP-0186, 4,11-diethyl-4-hydroxy-3,14-dioxo-3,4,12,14-tetrahydro-1H-pyrano[3′,4′:6,7]indolizino[1,2-b]quinolin-9-yl 4-((5-(3-(2,4-dihydroxy-5-isopropylphenyl)-5-hydroxy-4H-1,2,4-triazol-4-yl)-1H-indol-1-yl)methyl)piperidine-1-carboxylate]
% Remaining (1 h) [2, 4]: 57.9% | % Remaining (1 h) ([2]; mouse plasma, 37° C., 10 μM): 57.9% | % Remaining (1 h, 37° C.) ([2]; mouse plasma, 37° C.): 57.9% | pIC50 (HER2): 5.79

CCNC(=O)c1nnc(-c2cc(C(C)C)c(O)cc2O)n1-c1ccc(Oc2ccc(C(=O)N3CCC(OC(=O)OC4(CC)C(=O)OCc5c4cc4n(c5=O)Cc5c-4nc4ccc(O)cc4c5CC)CC3)cc2)cc1 (centres unmarked) [SDC-TRAP-0203, 4,11-Diethyl-9-hydroxy-3,14-dioxo-3,4,12,14-tetrahydro-1H-pyrano[3′,4′:6,7]indolizino[1,2-b]quinolin-4-yl (1-(4-(4-(3-(2,4-dihydroxy-5-isopropylphenyl)-5-(ethylcarbamoyl)-4H-1,2,4-triazol-4-yl)phenoxy)benzoyl)piperidin-4-yl) carbonate]
% Remaining (1 h, 37° C.) ([2]; mouse plasma, 37° C.): 71.2% | pIC50 (HER2): 6.35

CCc1c2c(nc3ccc(O)cc13)-c1cc3c(c(=O)n1C2)COC(=O)C3(CC)OC(=O)CN1CCN(c2ccc(-n3c(O)nnc3-c3cc(C(C)C)c(O)cc3O)cc2)CC1 (centres unmarked) [SDC-TRAP-0056, 4,11-diethyl-9-hydroxy-3,14-dioxo-3,4,12,14-tetrahydro-1H-pyrano[3′,4′:6,7]indolizino[1,2-b]quinolin-4-yl 2-(4-(4-(3-(2,4-dihydroxy-5-isopropylphenyl)-5-hydroxy-4H-1,2,4-triazol-4-yl)phenyl)piperazin-1-yl)acetate]
Plasma Conc. ([3]; Time (h) 0.083): 1220 µM | Tumor Conc. ([3]; Time (h) 0.083): 6.40 nmol/g of tissue | Tumor/Plasma Ratio ([3]; Time (h) 0.083): 0.00525 | Plasma Conc. ([3]; Time (h) 6): 2.06 µM | Tumor Conc. ([3]; Time (h) 6): 2.65 nmol/g of tissue | Tumor/Plasma Ratio ([3]; Time (h) 6): 1.28 | Plasma Conc. ([3]; Time (h) 12): 0.382 µM | Tumor Conc. ([3]; Time (h) 12): 0.746 nmol/g of tissue | Tumor/Plasma Ratio ([3]; Time (h) 12): 1.95 | Plasma Conc. ([3]; Time (h) 24): 0.0343 µM | Tumor Conc. ([3]; Time (h) 24): BQL | Plasma Conc. ([3]; Time (h) 48): BQL | Tumor Conc. ([3]; Time (h) 48): BQL | % Remaining (1 h) [2, 4]: 78.4% | % Remaining (1 h, 37° C.) ([2]; mouse plasma, 37° C.): 78% | pIC50 (HER2): 5.90

CCNC(=O)c1nnc(-c2cc(C(C)C)c(O)cc2O)n1-c1ccc(Oc2ccc(N(C)C(=O)Oc3ccc4nc5c(c(CC)c4c3)Cn3c-5cc4c(c3=O)COC(=O)[C@]4(O)CC)cc2)cc1 [SDC-TRAP-0145, (S)-4,11-diethyl-4-hydroxy-3,14-dioxo-3,4,12,14-tetrahydro-1H-pyrano[3′,4′:6,7]indolizino[1,2-b]quinolin-9-yl (4-(4-(3-(2,4-dihydroxy-5-isopropylphenyl)-5-(ethylcarbamoyl)-4H-1,2,4-triazol-4-yl)phenoxy)phenyl)(methyl)carbamate]
% Remaining (1 h) [2, 4]: 14.1% | % Remaining (1 h, 37° C.) ([2]; mouse plasma, 37° C.): 14.1% | pIC50 (HER2): 6.74

CCc1c2c(nc3ccc(O)cc13)-c1cc3c(c(=O)n1C2)COC(=O)[C@@]3(CC)OC(=O)N1CCC(CCc2ccc(-n3c(O)nnc3-c3cc(C(C)C)c(O)cc3O)cc2)CC1 [SDC-TRAP-0104, (S)-4,11-diethyl-9-hydroxy-3,14-dioxo-3,4,12,14-tetrahydro-1H-pyrano[3′,4′:6,7]indolizino[1,2-b]quinolin-4-yl 4-(4-(3-(2,4-dihydroxy-5-isopropylphenyl)-5-hydroxy-4H-1,2,4-triazol-4-yl)phenethyl)piperidine-1-carboxylate]
% Remaining (1 h) [2, 4]: 95.5% | % Remaining (1 h, 37° C.) ([2]; mouse plasma, 37° C.): 95.5% | pIC50 (HER2): 6.46

CCNC(=O)c1nnc(-c2cc(C(C)C)c(O)cc2O)n1-c1ccc(Oc2ccc(C(=O)N3CCC(C(=O)OC4(CC)C(=O)OCc5c4cc4n(c5=O)Cc5cc6c(CN(C)C)c(O)ccc6nc5-4)CC3)cc2)cc1 (centres unmarked) [SDC-TRAP-0159, 10-((dimethylamino)methyl)-4-ethyl-9-hydroxy-3,14-dioxo-3,4,12,14-tetrahydro-1H-pyrano[3′,4′:6,7]indolizino[1,2-b]quinolin-4-yl-1-(4-(4-(3-(2,4-dihydroxy-5-isopropylphenyl)-5-(ethylcarbamoyl)-4H-1,2,4-triazol-4-yl)phenoxy)benzoyl)piperidine-4-carboxylate]
% Remaining (1 h) [2, 4]: 121% | pIC50 (HER2): < 6.00

Cc1cc(COC(=O)Nc2cccc3c2CN(C2CCC(=O)NC2=O)C3=O)cc(C)c1OC(=O)N1CCN(Cc2ccc(-n3c(O)nnc3-c3cc(C(C)C)c(O)cc3O)cc2F)CC1 (centres unmarked) [SDC-TRAP-0182, 4-((((2-(2,6-dioxopiperidin-3-yl)-1-oxoisoindolin-4-yl)carbamoyl)oxy)methyl)-2,6-dimethylphenyl 4-(4-(3-(2,4-dihydroxy-5-isopropylphenyl)-5-hydroxy-4H-1,2,4-triazol-4-yl)-2-fluorobenzyl)piperazine-1-carboxylate]
% Remaining (1 h) [2, 4]: 91.9% | pIC50 (HER2): 6.44

CCNC(=O)c1nnc(-c2cc(C(C)C)c(O)cc2O)n1-c1ccc(CN2CCC(C(=O)N3CCC(N(C)C(=O)Oc4ccc5nc6c(c(CC)c5c4)Cn4c-6cc5c(c4=O)COC(=O)C5(O)CC)CC3)CC2)cc1 (centres unmarked) [SDC-TRAP-0172, 4,11-diethyl-4-hydroxy-3,14-dioxo-3,4,12,14-tetrahydro-1H-pyrano[3′,4′:6,7]indolizino[1,2-b]quinolin-9-yl (1-(1-(4-(3-(2,4-dihydroxy-5-isopropylphenyl)-5-(ethylcarbamoyl)-4H-1,2,4-triazol-4-yl)benzyl)piperidine-4-carbonyl)piperidin-4-yl)(methyl) carbamate]
% Remaining (1 h) [2, 4]: 74.7% | % Remaining (1 h) ([2]; mouse plasma, 37° C., 10 μM): 74.7% | % Remaining (1 h, 37° C.) ([2]; mouse plasma, 37° C.): 74.7% | pIC50 (HER2): > 7.11 and 7.25

CCNC(=O)c1nnc(-c2cc(C(C)C)c(O)cc2O)n1-c1ccc(Oc2ccc(OC(=O)N(C)CCOC(=O)Nc3cccc4c3CN(C3CCC(=O)NC3=O)C4=O)cc2)cc1 (centres unmarked)
% Remaining (1 h) [2, 4]: 51.2% | pIC50 (HER2): 5.54
